Measured values as given in US6914045B2, “Glycopeptide antibiotics” (Wyeth Holdings Corporation, priority 2001, dated 2005).
Converted amounts (≈) assume the structure as drawn.

Tests used:
Test in all cases: in vitro antibacterial evaluation, MIC by broth dilution
Type in all cases: cell-based
Escherichia coli = conditions: 18 hours at 35° C.
Staphylococcus sp. = conditions: broth dilution, 18 hours at 35° C.
Summary of the method: (§1)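 Inoculum 5×10^5 CFU/mL; concentrations 64 to 0.06 μg/mL; MIC defined as lowest inhibitory level. Conducted by broth dilution under NCCLS guidelines.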

Enterococcus sp. = conditions: broth dilution, 18 hours at 35° C.
Summary of the method: as §1

Streptococcus sp. = conditions: broth dilution, 18 hours at 35° C.
Summary of the method: as §1

MIC Escherichia coli (ATCC 25922) (Escherichia coli): 64 µg/mL (≈ 45.7 µM)
MIC Escherichia coli (GC 4559) (Escherichia coli): 64 µg/mL (≈ 45.7 µM)
MIC Escherichia coli (GC 4560) (Escherichia coli): 1 µg/mL (≈ 0.715 µM)
MIC Coagulase Negative Staphylococcus (GC 4547) (Staphylococcus sp.): 1 µg/mL (≈ 0.715 µM)
MIC Coagulase Negative Staphylococcus (GC 4548) (Staphylococcus sp.): 1 µg/mL (≈ 0.715 µM)
MIC Coagulase Negative Staphylococcus (GC 4549) (Staphylococcus sp.): 0.5 µg/mL (≈ 0.357 µM)
MIC Coagulase Negative Staphylococcus (GC 4551) (Staphylococcus sp.): 2 µg/mL (≈ 1.43 µM)
MIC Coagulase Negative Staphylococcus (GC 6257) (Staphylococcus sp.): 1 µg/mL (≈ 0.715 µM)
MIC Staphylococcus aureus (ATCC 29213) (Staphylococcus sp.): 2 µg/mL (≈ 1.43 µM)
MIC Staphylococcus aureus (GC 1131) (Staphylococcus sp.): 2 µg/mL (≈ 1.43 µM)
MIC Staphylococcus aureus (GC 3051) (Staphylococcus sp.): 2 µg/mL (≈ 1.43 µM)
MIC Staphylococcus aureus (GC 3053) (Staphylococcus sp.): 2 µg/mL (≈ 1.43 µM)
MIC Staphylococcus aureus (GC 4541) (Staphylococcus sp.): 2 µg/mL (≈ 1.43 µM)
MIC Staphylococcus aureus (GC 4542) (Staphylococcus sp.): 2 µg/mL (≈ 1.43 µM)
MIC Staphylococcus aureus (GC 4544) (Staphylococcus sp.): 2 µg/mL (≈ 1.43 µM)
MIC Staphylococcus aureus (GC 4545) (Staphylococcus sp.): 2 µg/mL (≈ 1.43 µM)
MIC Staphylococcus aureus-SMITH (GC 4543) (Staphylococcus sp.): 2 µg/mL (≈ 1.43 µM)
MIC Staphylococcus aureus (ATCC 29213) (Staphylococcus sp.; strain ATCC 29213): 2 µg/mL (≈ 1.43 µM)
MIC Staphylococcus aureus (GC 1131) (Staphylococcus sp.; strain GC 1131): 2 µg/mL (≈ 1.43 µM)
MIC Staphylococcus aureus (GC 3051) (Staphylococcus sp.; strain GC 3051): 2 µg/mL (≈ 1.43 µM)
MIC Staphylococcus aureus (GC 3053) (Staphylococcus sp.; strain GC 3053): 2 µg/mL (≈ 1.43 µM)
MIC Staphylococcus aureus (GC 4541) (Staphylococcus sp.; strain GC 4541): 2 µg/mL (≈ 1.43 µM)
MIC Staphylococcus aureus (GC 4542) (Staphylococcus sp.; strain GC 4542): 2 µg/mL (≈ 1.43 µM)
MIC Staphylococcus aureus-SMITH (GC 4543) (Staphylococcus sp.; strain GC 4543): 2 µg/mL (≈ 1.43 µM)
MIC Staphylococcus aureus (GC 4544) (Staphylococcus sp.; strain GC 4544): 2 µg/mL (≈ 1.43 µM)
MIC Staphylococcus aureus (GC 4545) (Staphylococcus sp.; strain GC 4545): 2 µg/mL (≈ 1.43 µM)
MIC Coagulase Negative Staphylococcus (GC 4547) (Staphylococcus sp.; strain GC 4547): 1 µg/mL (≈ 0.715 µM)
MIC Coagulase Negative Staphylococcus (GC 4548) (Staphylococcus sp.; strain GC 4548): 1 µg/mL (≈ 0.715 µM)
MIC Coagulase Negative Staphylococcus (GC 4549) (Staphylococcus sp.; strain GC 4549): 0.5 µg/mL (≈ 0.357 µM)
MIC Coagulase Negative Staphylococcus (GC 4551) (Staphylococcus sp.; strain GC 4551): 2 µg/mL (≈ 1.43 µM)
MIC Coagulase Negative Staphylococcus (GC 6257) (Staphylococcus sp.; strain GC 6257): 1 µg/mL (≈ 0.715 µM)
MIC Enterococcus avium (GC 4558) (Enterococcus sp.): 8 µg/mL (≈ 5.72 µM)
MIC Enterococcus faecalis (ATCC 29212) (Enterococcus sp.): 8 µg/mL (≈ 5.72 µM)
MIC Enterococcus faecalis (GC 2242) (Enterococcus sp.): 4 µg/mL (≈ 2.86 µM)
MIC Enterococcus faecalis (GC 2691) (Enterococcus sp.): 8 µg/mL (≈ 5.72 µM)
MIC Enterococcus faecalis (GC 3059) (Enterococcus sp.): 8 µg/mL (≈ 5.72 µM)
MIC Enterococcus faecalis (GC 4552) (Enterococcus sp.): 8 µg/mL (≈ 5.72 µM)
MIC Enterococcus faecalis (GC 4553) (Enterococcus sp.): 8 µg/mL (≈ 5.72 µM)
MIC Enterococcus faecalis (GC 4554) (Enterococcus sp.): 8 µg/mL (≈ 5.72 µM)
MIC Enterococcus faecalis (GC 6189) (Enterococcus sp.): 8 µg/mL (≈ 5.72 µM)
MIC Enterococcus faecium (GC 2243) (Enterococcus sp.): 8 µg/mL (≈ 5.72 µM)
MIC Enterococcus faecium (GC 4556) (Enterococcus sp.): 8 µg/mL (≈ 5.72 µM)
MIC Enterococcus faecium (GC 4557) (Enterococcus sp.): 2 µg/mL (≈ 1.43 µM)
MIC Enterococcus faecalis (ATCC 29212) (Enterococcus sp.; strain ATCC 29212): 8 µg/mL (≈ 5.72 µM)
MIC Enterococcus faecium (GC 2243) (Enterococcus sp.; strain GC 2243): 8 µg/mL (≈ 5.72 µM)
MIC Enterococcus faecalis (GC 4552) (Enterococcus sp.; strain GC 4552): 8 µg/mL (≈ 5.72 µM)
MIC Enterococcus faecalis (GC 4553) (Enterococcus sp.; strain GC 4553): 8 µg/mL (≈ 5.72 µM)
MIC Enterococcus faecalis (GC 4554) (Enterococcus sp.; strain GC 4554): 8 µg/mL (≈ 5.72 µM)
MIC Enterococcus faecium (GC 4556) (Enterococcus sp.; strain GC 4556): 8 µg/mL (≈ 5.72 µM)
MIC Enterococcus faecium (GC 4557) (Enterococcus sp.; strain GC 4557): 2 µg/mL (≈ 1.43 µM)
MIC Enterococcus avium (GC 4558) (Enterococcus sp.; strain GC 4558): 8 µg/mL (≈ 5.72 µM)
MIC Enterococcus faecalis (GC 6189) (Enterococcus sp.; strain GC 6189): 8 µg/mL (≈ 5.72 µM)
MIC Enterococcus faecalis (GC 2242) (Enterococcus sp.; inoculum 5×10^5 CFU/mL, strain GC 2242): 4 µg/mL (≈ 2.86 µM)
MIC Enterococcus faecalis (GC 2691) (Enterococcus sp.; inoculum 5×10^5 CFU/mL, strain GC 2691): 8 µg/mL (≈ 5.72 µM)
MIC Enterococcus faecalis (GC 3059) (Enterococcus sp.; inoculum 5×10^5 CFU/mL, strain GC 3059): 8 µg/mL (≈ 5.72 µM)
MIC Streptococcus agalactiae (GC 4564) (Streptococcus sp.): 0.5 µg/mL (≈ 0.357 µM)
MIC Streptococcus pneumoniae (ATCC 6301) (Streptococcus sp.): 0.25 µg/mL (≈ 0.179 µM)
MIC Streptococcus pneumoniae (GC 1894) (Streptococcus sp.): 0.12 µg/mL (≈ 0.0857 µM)
MIC Streptococcus pneumoniae (GC 4565) (Streptococcus sp.): 0.25 µg/mL (≈ 0.179 µM)
MIC Streptococcus pyogenes (GC 4563) (Streptococcus sp.): 0.5 µg/mL (≈ 0.357 µM)
MIC Streptococcus pneumoniae (ATCC 6301) (Streptococcus sp.; inoculum 5×10^5 CFU/mL, strain ATCC 6301): 0.25 µg/mL (≈ 0.179 µM)
MIC Streptococcus pneumoniae (GC 1894) (Streptococcus sp.; inoculum 5×10^5 CFU/mL, strain GC 1894): 0.12 µg/mL (≈ 0.0857 µM)
MIC Streptococcus pyogenes (GC 4563) (Streptococcus sp.; inoculum 5×10^5 CFU/mL, strain GC 4563): 0.5 µg/mL (≈ 0.357 µM)
MIC Streptococcus agalactiae (GC 4564) (Streptococcus sp.; inoculum 5×10^5 CFU/mL, strain GC 4564): 0.5 µg/mL (≈ 0.357 µM)
MIC Streptococcus pneumoniae (GC 4565) (Streptococcus sp.; inoculum 5×10^5 CFU/mL, strain GC 4565): 0.25 µg/mL (≈ 0.179 µM)
SMILES: Cc1ccc(COCC2OC(OC3C(CO)OC(Oc4ccc(CC5NC(=O)C(C(C)c6ccccc6)NC(=O)CNC(=O)C(CO)NC(=O)C(C(O)C6CNC(=N)N6C6OC(CO)C(O)C(O)C6O)NC(=O)C(C(O)C6CNC(=N)N6)NC5=O)cc4)C(O)C3O)C(O)C(O)C2O)cc1 (stereo not shown) [Example 234]
MIC Staphylococcus haemolyticus (GC 4546) (Staphylococcus sp.): 1 µg/mL (≈ 0.715 µM)
MIC Staphylococcus haemolyticus (GC 4546) (Staphylococcus sp.; strain GC 4546): 1 µg/mL (≈ 0.715 µM)
